# Test results from US12630555B2, “Substituted pyrrolo[1,2-a]quinoxalin-4(5H)-ones as CX3CR1 antagonists” (Drexel University, priority 2017, dated 2026).
# Values joined by “and” are separate entries in the source; they are usually repeats but may differ in a detail not shown here. Identical values can stand only once. Like-named read-outs stand apart in the source and are kept apart here.
# What was measured:
# MDA-231 cells [1] = test: Enumeration of CTCs in blood of tumor-bearing mice after mobilization with AMD-3100; format: in vivo; conditions: for mobilization of cancer cells (CTCs) into the blood: compound alone, tumor-bearing mice
# Procedure: Blood was withdrawn by cardiac puncture. AMD-3100 was purchased from Selleckchem (S8030) dissolved in PBS at 1 mg/ml and at −20° C. before use. Tumor-bearing animals were anesthetized as described above and 200-250 μl of systemic blood was collected at the designated time points and transferred in K2EDTA tubes. Blood samples were placed on ice, diluted using a saline buffer (0.5% BSA, 2% EDTA in PBS) at a 1:8 ratio and then filtered through a 70 μm cell strainer immediately prior to achieve a label-free, microfluidic isolation of CTCs. For enumeration, the Captor® system (Clearbridge Biomedics, Singapore) was used, which allows visualization of individual CTCs trapped into crescent-shape microwells. Following complete flowing of the diluted blood, the CTChip® was transferred to the stage of an inverted fluorescent microscope and all trapped CTCs were counted. For the recovery of fully viable CTCs we used the ClearCell® FX system (Clearbridge Biomedics, Singapore), which employs the CTChip® FR1 to isolate cancer cells from blood cells based on size, deformability and inertia through a Dean Flow Fractionation process.
# CTCs were lysed on the same microfluidic chip used for capture using an ice-cooled RNA lysis buffer (Norgen Bioteck Corp.). […] Genespecific primers and probe sets were purchased from Applied Biosystem.
# Cancer cells in the blood are a dynamic pool that constantly fluctuates as cells enter circulation upon being dislodged from tumors, reseed additional sites or perish to anoikis if they fail to do so. This makes determining the time spent by cancer cells in the blood problematic. A major hurdle for these types of studies is the limited ability to monitor the timing of CTCs' entry into and egress from the blood during steady-state conditions. To circumvent these issues, cancer cells were acutely mobilized from tumors in the skeleton and soft-tissues in mice—above steady-state counts—and then thereafter the blood was sampled at specific intervals, reasoning that a time-dependent decline of the number of CTCs in the blood would result from cancer cells seeding back to tissues and dying in circulation. […] When spreading via the systemic circulation, cancer cells become susceptible to anoikis and extending the time spent in the blood increases the odds of incurring this form of apoptotic cell death.
# disseminated tumors [2] = test: Additional metastatic lesions after AMD-3100 mobilization; format: in vivo, mice
# Procedure: Complementary studies were conducted in mice harboring experimental metastases as detected at one week post-grafting, and left either untreated or treated at the second and third week with AMD-3100, alone or in combination with Compound XXII (FIG. 10B). All lesions identified at the fifth week that had not been previously detected at the second week of the experiment were counted and compared among treatment groups.
# [3] = system: MDA-231 human breast cancer cells; test: Model of tumor seeding: MDA-231 cells inoculated intracardially, DTCs in skeleton at 24 hours; conditions: for seeding of the skeleton by MDA-231 breast cancer cells: SCID mice, i.p. one hour before and 3 hours after inoculation (Compound XXII 10 mg/kg); for reduction in DTCs vs vehicle: 24 hours
# Procedure: Female SCID mice (Taconic CB17-SCRF, ˜20 g body weight) were housed in a germfree barrier. At 6 weeks of age, mice were anesthetized with a mixture of ketamine (80 mg/kg) and xylazine (10 mg/kg). […] After intracardiac injection, the experimenter distributed each animal in unlabeled cages. Each cage was randomly assigned to different treatment groups by a second experimenter.
# The dosing regimen was selected based on results from pharmacokinetic analyses. […] For the detection and enumeration of single cancer cells, the experimenter was not blinded but was assisted by the Nuance FX multiplex imaging software (see below). A fluorescence image was acquired for each tissue section analyzed, approximately 36 serial sections spanning the entire width of each knee-joint. The identification and enumeration of single cells was obtained by three different experimenters, including the Principal Investigator, and occasional discrepancies reconciled prior to compiling the final data.
# Animal model of tumor seeding: SCID mice (Taconic CB17-SCRF, ˜25 g body weight) were housed in a germ-free barrier. At 6 weeks of age, mice were anesthetized with a mixture of ketamine (80 mg/kg) and xylazine (10 mg/kg). Tumor cells were delivered as a 100 μl suspension of serum-free culture medium by carefully accessing the left ventricle of the heart through the chest with an insulin syringe mounting a 30-gauge needle. […] Species- and class-matched irrelevant immunoglobulins (Rabbit IgG, 15 μg/ml, Jackson ImmunoResearch) or DMSO were used for the control groups. […] The dosing regimen was selected based on results from pharmacokinetic analyses. […] Blue-fluorescent beads, 10 μm-polystyrene in diameter (Invitrogen-Molecular Probes) were included in the injection medium and visualized by fluorescence microscopy to validate injection efficiency. Mice showing non-homogenous distribution of or lacking fluorescent beads in tissue sections of lungs and kidneys were removed from the study.
# Soft-tissue organs were then placed either in 30% sucrose for cryoprotection or 1% paraformaldehyde for long-term storage. Bones were decalcified in 0.5M EDTA (Fisher Scientific) for 7 days followed by incubation in 30% sucrose. Tissues were maintained at 4° C. for all aforementioned steps and frozen in O.C.T. medium (Sakura Finetek) by placement over dry-ice chilled 2-methylbutane. Soft-tissue organs as well as knee joints (femora and tibiae) were processed to obtain serial frozen sections, 80 μm in thickness, using a Microm HM550 cryostat.
# Fluorescent images of skeletal metastases were acquired using an Axio Scope.A1 microscope (Zeiss) connected to a Nuance Multispectral Imaging System (PerkinElmer). Digital images were analyzed and processed using the Nuance Software (v. 2.4). […]
# MDA-231 cells [4] = test: Model of metastatic disease: one-week MDA-231 tumors, bioluminescence imaging; format: in vivo, mice
# Procedure: (§1) One week after intracardiac injection, animals were randomly assigned to control and treated group and then imaged for tumors in the skeleton and soft-tissue organs. Vehicle or Compound XXII (10 mg/kg) were administered i.p. twice/day, for the entire duration of the study and animals were imaged weekly. Doxorubicin was purchased from LEK Laboratories (D5794), dissolved in PBS at 1 mg/ml and stored at −20° C. before use. All experiments were performed in agreement with NIH guidelines for the humane use of animals. The Drexel University College of Medicine Committee approved all protocols involving the use of animals for the Use and Care of Animals.
# MDA-231 cells were stably transduced with the pLeGo-IG2-Luc2 vector. Prior to imaging, animals were injected i.p. with 150 mg/kg of D-luciferin (ViVoGlo, Promega) and anesthetized using 3% isoflurane. Animals were then transferred to the chamber of an IVIS Lumina XR (PerkinElmer) where they received 2% isoflurane throughout the image acquisition. Fifteen minutes after injection of the substrate, five-minute exposures of both dorsal and ventral views were obtained and quantification and analysis of bioluminescence was performed using the Living Image software.
# To determine whether the pharmacologic targeting of CX3CR1 with Compound I would produce similar effects, mice were grafted with MDA-231 cells and at the first week post-IC injection were randomized and administered with either vehicle or 10 mg/Kg Compound I i.p. twice daily for three weeks, based on pharmacokinetics studies with this compound. Animals were imaged weekly before being euthanized, and treatment with Compound I led to a reduction in the number of tumor foci and overall tumor burden, at least as effectively as observed using CRISPRi (FIGS. 5A-5B).
# in vivo = conditions: mouse, ip, 10 mg/kg
# Procedure: (§2) Animals were then anesthetized as described above and 300 μl of blood samples were collected by cardiac puncture at the designated time points and transferred in K2EDTA tubes. Blood samples were placed on ice and tested after dilution.
# [5] = Pharmacokinetic studies in mice, 10 mg/kg i.p.; conditions: 1 hour, vs 10 nM
# Procedure: as §2
# [6] = system: 4T-1 murine breast cancer cells; test: Model of tumor seeding: 4T-1 cells inoculated intracardially in Balb-C mice; format: in vivo; conditions: 10 mg/kg i.p. one hour before and 3 hours after inoculation
# Procedure: Mice were sacrificed 24 hours post-injection.
# MDA-231 cells [7] = test: Reseeding of CTCs to bone and lungs (GFP/CM-Dil double-labeled cells); format: in vivo, mice; conditions: AMD-3100 with Compound XXII 10 mg/Kg i.p. 1 hr prior and 3 hrs after; 12 or 24 hours
# Procedure: The CellTracker™ CM-Dil (ThermoFisher Scientific) was diluted as 50 μg in 50 μl of DMSO to prepare a stock solution. Immediately before use, the stock solution was diluted with D-PBS to a 1 μM working solution. Cells were exposed to the working solution at 37° C. for 5 minutes and then at 4° C. for 15 minutes and then washed with PBS followed by F-12 cell culture medium.
# Green-fluorescent MDA-231 cells were labeled with the cell-tracker CM-Dil, a widely validated red-fluorescent dye that, while being stably retained by non-dividing cells, is transferred to daughter cells upon mitosis and eventually becomes too diluted and undetectable in rapidly dividing cell populations. Based on these features, GFP/CM-Dil double-labeled cancer cells, when reseeding from established tumors would emit green fluorescence but lack red fluorescence, as the results of high proliferation during tumor growth and consequential dilution of the CM-Dil dye. Cancer cells that became dormant upon seeding different tissues following intracardiac injection would retain the CM-Dil dye, thereby emitting signals in both green and red fluorescent spectra (FIG. 9A). For these experiments, mice were grafted with double-labeled cancer cells in the left cardiac ventricle and allowed to develop tumors for two weeks. […]
# disseminated tumors [8] = format: in vivo
# Procedure: as §1
# Mice harboring 1-week disseminated tumors were treated with the anthracycline antibiotic Doxorubicin (5 mg/Kg, i.p., q.w.), alone or in combination with Compound XXII (10 mg/Kg, i.p., b.i.d.) for the entire duration of the study. […] When the effects on both number of tumors and tumor burden were examined. […] It could be argued that this lack of effect shown by the chemotherapeutic drug was likely attributable to the short length of treatment, shorter than common protocols used in oncology practice. […] The acute toxicity of Doxorubicin precluded longer experiments. In order to test whether retaining cancer cells in the blood circulation by targeting CX3CR1 could extend their exposure to chemotherapeutics, the fluorescent properties of Doxorubicin were utilized and the red-spectrum emitted fluorescence of CTCs was collected at steady state from mice harboring disseminated tumors which were treated with Doxorubicin (alone, one hour after or three hours prior to administration of Compound XXII). CTCs were collected—independently of the type of treatment—four hours after Doxorubicin administration.
# disseminated tumors [9] = test: Docetaxel alone or with Compound XXII in animals bearing disseminated tumors; format: in vivo
# Procedure: Animals bearing disseminated tumors were treated with Docetaxel (2 mg/Kg, i.p., bis in 7 d.) either alone or in combination with Compound XXII (10 mg/Kg i.p., q12h) and compared to Compound XXII alone (FIGS. 11E-11G).
# [10] = single dose 5 mg/kg, mice with 3-week tumors
# [11] = 10 mg/kg i.p. twice/day from one week post-inoculation, vs vehicle
# [12] = Doxorubicin 5 mg/Kg q.w. in combination with Compound XXII 10 mg/Kg i.p. b.i.d.
# [13] = Doxorubicin alone 5 mg/Kg i.p. q.w., two weeks
smiles,measurement,setting,value
"c1cc(CN2CCCNCCNCCCNCC2)ccc1CN1CCCNCCNCCCNCC1 [AMD-3100, reference compound]",area under the curve of CTC counts vs time,MDA-231 cells [1]; AMD-3100 alone,345
same,mobilization of cancer cells (CTCs) into the blood,MDA-231 cells [1],rapid increase in the number of CTCs
same,time of peak number of CTCs post-treatment,MDA-231 cells [1]; [10],3 h
same,time of return of CTCs to steady-state counts,MDA-231 cells [1]; [10],48 h
same,number of additional lesions vs untreated animals,"disseminated tumors [2]; AMD-3100 alone at second and third week, lesions at fifth week",doubled number of additional lesions
same,seeding of the skeleton by MDA-231 breast cancer cells,[3],unaffected
"O=c1c2cccn2c2ccccc2n1CCCN1CCC(c2ccc(Cl)cc2)CC1 [Compound I, 5-(3-(4-(4-chlorophenyl)piperidin-1-yl)propyl)pyrrolo[1,2-a]quinoxalin-4(5H)-one]",number of tumors (tumor foci),MDA-231 cells [4]; [11],reduction
same,overall tumor burden,MDA-231 cells [4]; [11],reduction
same,concentration at 1 h,in vivo; in vivo,89 ng/mL and 210 nM
same,increase of blood level over lowest fully effective dose in vitro,[5],20 fold
same,reduction in DTCs vs vehicle,"[3]; 10 mg/Kg i.p. twice, one hour prior and three hours after IC inoculation",approximately 60%
same,reduction in DTCs vs vehicle,[3]; MDA-231 cells pre-incubated with 10 nM compound,approximately 60%
"O=C1CN(CCCn2c(=O)c3cccn3c3ccccc32)CCN1c1ccc(Cl)cc1 [Compound XXII, 5-(3-(4-(4-chlorophenyl)-3-oxopiperazin-1-yl)propyl)pyrrolo[1,2-a]quinoxalin-4(5H)-one]",seeding of the skeleton by 4T-1 breast cancer cells,[6],severely impaired
same,"overall tumor burden, % of the levels in the control group",MDA-231 cells [4]; 10 mg/kg i.p. twice/day from one week post-inoculation,below 50%
same,number of tumors (tumor foci),MDA-231 cells [4]; [11],strongly reduced
same,overall tumor burden,MDA-231 cells [4]; [11],strongly reduced
same,overall survival,"MDA-231 cells [4]; 10 mg/kg i.p. twice/day, Kaplan-Meier, vs vehicle",increase in overall survival
same,area under the curve of CTC counts vs time,"MDA-231 cells [1]; AMD-3100 combined with Compound XXII, then Compound XXII alone twice/day",731
same,percentage of apoptotic CTCs (Bax/Bcl-2 ratio) vs AMD-3100 alone,"MDA-231 cells [1]; AMD-3100 in combination with Compound XXII, CTCs collected at 12 and 24 hours",increased the percentage of apoptotic CTCs
same,magnitude of increase in CTC counts vs AMD-3100 alone,MDA-231 cells [1]; Compound XXII co-administered with AMD-3100,more than two-fold higher
same,mobilization of cancer cells (CTCs) into the blood,MDA-231 cells [1],does not mobilize cancer cells back in the blood
same,number of reseeded cancer cells in lung and knee-joints,MDA-231 cells [7],dramatically reduced
same,AMD-3100-induced increase of additional lesions,disseminated tumors [2]; AMD-3100 in combination with Compound XXII,ablated
same,number of CTCs positive for intracellular Doxorubicin,"disseminated tumors [8]; Compound XXII administered prior to Doxorubicin, CTCs collected four hours after Doxorubicin",significant increase
same,anti-tumor effect compared with Doxorubicin,"disseminated tumors [8]; Compound XXII alone 10 mg/Kg i.p. b.i.d., short period of time",superior anti-tumor effect than Doxorubicin
same,containment of tumor numbers,disseminated tumors [8]; [12],comparable to Compound XXII alone
same,mitigation of tumor burden,disseminated tumors [8]; [12],comparable to Compound XXII alone
same,synergistic effects of combination,disseminated tumors [8]; Doxorubicin combined with Compound XXII,Synergistic effects were minimal
same,tumor burden after one week of treatment vs Compound XXII alone,"disseminated tumors [8]; Doxorubicin in combination with Compound XXII, 1 week",significantly superior effect
same,overall efficacy for lowering total tumor burden,"disseminated tumors [9]; Compound XXII alone 10 mg/Kg i.p. q12h, each time point","comparable to the current standard of care, docetaxel alone"
same,synergistic effects of combination,"disseminated tumors [9]; Docetaxel with Compound XXII, especially after 11 days of treatment",Synergistic effects were observed
same,concentration at 1 h,in vivo; plasma,~200 ng/mL
same,concentration at 6 h,in vivo; plasma,60 ng/mL
same,seeding of the skeleton by MDA-231 breast cancer cells,[3],severely impaired
"COc1cccc2c1C(=O)c1c(O)c3c(c(O)c1C2=O)C[C@@](O)(C(=O)CO)C[C@@H]3O[C@H]1C[C@H](N)[C@H](O)[C@H](C)O1 [Doxorubicin, reference compound]",number of tumors vs control,disseminated tumors [8]; [13],failed to show any significant effect
same,tumor burden vs control,disseminated tumors [8]; [13],failed to show any significant effect
"CC(=O)O[C@@]12CO[C@@H]1C[C@H](O)[C@@]1(C)C(=O)[C@H](O)C3=C(C)[C@@H](OC(=O)[C@H](O)[C@@H](NC(=O)OC(C)(C)C)c4ccccc4)C[C@@](O)([C@@H](OC(=O)c4ccccc4)[C@H]21)C3(C)C [docetaxel, reference compound]",tumor growth,disseminated tumors [9]; docetaxel alone 2 mg/Kg i.p. bis in 7 d.,significantly suppressed tumor growth
